From patent publication US8187822B2, “Methods to identify modulators” (Givaudan S.A., priority 2007, dated 2012)
“Also recorded” adds a separate entry of the source. Read-outs that look alike come from different tables or passages of the source. Each block holds one compound with its values, some of them ahead of it.

What was measured:
[1] = test system: cells expressing only Gα16gustducin44 but no TAS2 receptor; assay: Fluo-4 calcium assay, negative control cells without bitter receptor; type: cell-based; settings: for Neg. Control ΔF/F0: 0.02% DMSO
Method: HEK293T/Gα16-gustducin 44 cells were used; they are formed as described in WO 2004/055048. The host cell line HEK-293T is commercially available from the American Tissue Culture Collection (ATCC), ATCC®# CRL-11268
(§1) At day 0, the HEK293T cell line expressing Gα16-gustducin44 and a TAS2R bitter taste receptor formed as described in examples 2b or 2c was seeded in antibiotic-free growth medium (standard DMEM with 10% (v/v) heat-inactivated fetal bovine serum, 2 mM L-glutamine[…]) into black wall/clear bottom 96-well plates, coated with poly(ethylenimine) (0.005% v/v) at a concentration of 15,000 cells per well and incubated for 48 hours in humidified atmosphere (37° C., 5% CO2).
(§2) At the time of the assay, the growth medium was discarded and the cells were in humidified atmosphere (37° C., 5% CO2) for 1 hour with 50 μl of loading buffer consisting of 1.5 μM Fluo-4 AM and […] probenicid (Sigma-Aldrich, St. Louis, Mo., US) in DMEM.
(§3) Afterwards, the 96-well plate was washed 5 times with 100 μl of assay buffer (130 mM NaCl, 5 mM KCl, 10 mM HEPES, 2 mM CaCl2, and 5 mM dextrose, pH 7.4) per well, using an automated plate washer (BioTek). The plate was further incubated for 30 minutes at room temperature in the dark to allow for complete de-esterification of the Fluo-4. Afterwards the plate was washed 5 times with 100 μl of assay buffer per well, and reconstituted with 100 μl of assay buffer per well.
(§4) For assay reading, the plate was placed in a Fluorometric Imaging Plate Reader (FLIPR) (FLIPR-TETRA™, Molecular Devices, Sunnyvale, Calif., US), and receptor activation was initiated by addition of 100 μl of a twofold concentrated agonist stock solution (to give the desired agonist end concentration when added to the 100 microliter assay buffer volume), which was prepared in assay buffer.
(§5) Fluorescence was continuously monitored for 20 seconds to give a signal baseline (averaged to give F0) prior to agonist addition and for 120 seconds after agonist addition. The change in signal divided by F0 gives ΔF/F0 indicated in the table, with ΔF being the maximum signal occurring within the 120 seconds minus the minimum signal (occurring within the 120 seconds after agonist addition.
The obtained calcium signals were corrected for the response of cells expressing only the G Protein α subunit (Gα16-gustducin44) and normalized to the fluorescence of cells prior to the stimulus using ΔF/F0 (Fmax−Fmin/F0).
To confirm that the cell line formed in example 2c stably expresses the bitter taste receptor TAS2R44, a concentration-response curve for saccharin, a known agonist of TAS2R44, was generated. […] The standard deviation (+/−STD) is also indicated.
As a negative control to determine unspecific signals, each of the applied concentrations of sucralose was applied to cells expressing only Gα16gustducin44.
As a negative control, each agonist and each agonist with the antagonist/test compound (test cpd A) is applied to cells expressing only Gal 6gustducin44 but no TAS2 receptor (see results in table 7 herein below).

[2] = molecular target: T1, TAS2R44 (Homo sapiens, UniProt P59538, L162M); assay: Fluo-4 calcium assay, HEK293T cells expressing Gα16-gustducin44 and TAS2R44; type: cell-based; settings: for TAS2R44 ΔF/F0: 0.02% DMSO; for Sucralose ΔF/F0 / Sucralose + test cpd A ΔF/F0: TAS2R44 expressing cells; for Sucralose + test cpd A ΔF/F0: 25 μM test cpd A
T1 construct: RSS tag (first 45 amino acids of rat somatostatin receptor subtype 3, plus EcoRI site) (N); expressed in transfected cells
T1 sequence (P59538 with tags, fused parts or gaps L162M): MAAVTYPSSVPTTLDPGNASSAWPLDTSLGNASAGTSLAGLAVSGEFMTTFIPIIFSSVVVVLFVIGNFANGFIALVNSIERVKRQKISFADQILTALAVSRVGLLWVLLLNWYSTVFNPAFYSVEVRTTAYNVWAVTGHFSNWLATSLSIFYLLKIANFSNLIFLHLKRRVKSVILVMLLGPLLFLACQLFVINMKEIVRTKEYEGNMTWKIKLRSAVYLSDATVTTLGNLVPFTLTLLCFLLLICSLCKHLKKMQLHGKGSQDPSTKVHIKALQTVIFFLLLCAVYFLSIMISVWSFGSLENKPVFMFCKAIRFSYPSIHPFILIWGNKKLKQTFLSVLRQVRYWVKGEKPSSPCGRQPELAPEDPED
Method: Cell lines that stably expresses a SABR (TAS2R44, TAS2R1, TAS2R10) was generated by transfecting pcDNA3.1Zeo-SABR into HEK293T/Gα16-gustducin 44 cells (both formed as described in example 1). The host cell line HEK-293T is commercially available from the American Tissue Culture Collection (ATCC), ATCC®# CRL-11268.
The expression of TAS2R44 was evaluated by testing for the presence of a functional response to the known TAS2R44 agonist saccharin (as described in WO 2004/029087) in addition to sucralose, which was determined via automated calcium imaging on the FLIPR-TETRA™ (Molecular Devices, Sunnyvale, Calif., US) as described in example 3. One clone was selected resulting in the HEK293T/Gα16-gustducin 44/TAS2R44 cell line.
Fluo-4AM (Invitrogen, Carlsbad, Calif., US) is a fluorescent indicator of intracellular calcium dynamics (change in concentration) and allows monitoring changes in the calcium concentration, particularly an increase in response to receptor activation occurring after agonist exposure.
as §1, §2, §3, §4, §5
All data was collected from at least two independent experiments each carried out in triplicate.
A concentration-response analysis was performed and EC50 values were calculated by nonlinear regression using the function f(x)=(a−d)/(1+(x/C)^nh)+d; with a=minimum signal, d=maximum signal, nh=hill coefficient, C=EC50, and x=agonist concentration. EC50 is the molar concentration of an agonist which produces 50% of the maximum possible effective response for that agonist.
The obtained calcium signals were corrected for the response of cells expressing only the G Protein α subunit (Gα16-gustducin44) and normalized to the fluorescence of cells prior to the stimulus using ΔF/F0 (Fmax−Fmin/F0). […]

EC50 ([2]; agonist alone, stable TAS2R44 cell line (Examples 4, 5), read-out: calculated EC50 value): 16.7 ± 1.01 mM
EC50 ([2]; agonist sucralose alone, TAS2R44 (Example 9), read-out: EC50 Agonist): 36.3 ± 5.7 mM
TAS2R44 ΔF/F0 ([2]; sucralose 0.3906 mM): 0.023
TAS2R44 ΔF/F0 ([2]; sucralose 0.7813 mM): 0.025
TAS2R44 ΔF/F0 ([2]; sucralose 1.5625 mM): 0.026
TAS2R44 ΔF/F0 ([2]; sucralose 3.1250 mM): 0.043
TAS2R44 ΔF/F0 ([2]; sucralose 6.2500 mM): 0.059
TAS2R44 ΔF/F0 ([2]; sucralose 12.5000 mM): 0.109
TAS2R44 ΔF/F0 ([2]; sucralose 25.0000 mM): 0.197
TAS2R44 ΔF/F0 ([2]; sucralose 50.0000 mM): 0.256
TAS2R44 ΔF/F0 ([2]; sucralose 100.0000 mM): 0.260
Sucralose ΔF/F0 ([2]; sucralose alone 0.3906 mM (0.02% DMSO control of Example 9)): 0.046
Sucralose ΔF/F0 ([2]; sucralose alone 0.7813 mM (0.02% DMSO control of Example 9)): 0.038
Sucralose ΔF/F0 ([2]; sucralose alone 1.5625 mM (0.02% DMSO control of Example 9)): 0.042
Sucralose ΔF/F0 ([2]; sucralose alone 3.1250 mM (0.02% DMSO control of Example 9)): 0.030
Sucralose ΔF/F0 ([2]; sucralose alone 6.2500 mM (0.02% DMSO control of Example 9)): 0.027
Sucralose ΔF/F0 ([2]; sucralose alone 12.5000 mM (0.02% DMSO control of Example 9)): 0.051
Sucralose ΔF/F0 ([2]; sucralose alone 25.0000 mM (0.02% DMSO control of Example 9)): 0.110
Sucralose ΔF/F0 ([2]; sucralose alone 50.0000 mM (0.02% DMSO control of Example 9)): 0.192
Sucralose ΔF/F0 ([2]; sucralose alone 100.0000 mM (0.02% DMSO control of Example 9)): 0.352
Structure (SMILES): OC[C@H]1O[C@H](O[C@]2(CCl)O[C@H](CCl)[C@@H](O)[C@@H]2O)[C@H](O)[C@@H](O)[C@H]1Cl [Sucralose, sucralose]
signal in negative control, in words ([1]; host cells expressing only Gα16-gustducin44): No significant change
Neg. Control ΔF/F0 ([1]; sucralose 0.3906 mM): 0.014
Neg. Control ΔF/F0 ([1]; sucralose 0.7813 mM): 0.014
Neg. Control ΔF/F0 ([1]; sucralose 1.5625 mM): 0.017
Neg. Control ΔF/F0 ([1]; sucralose 3.1250 mM): 0.012
Neg. Control ΔF/F0 ([1]; sucralose 6.2500 mM): 0.017
Neg. Control ΔF/F0 ([1]; sucralose 12.5000 mM): 0.016
Neg. Control ΔF/F0 ([1]; sucralose 25.0000 mM): 0.016
Neg. Control ΔF/F0 ([1]; sucralose 50.0000 mM): 0.018
Neg. Control ΔF/F0 ([1]; sucralose 100.0000 mM): 0.021
Sucralose ΔF/F0 ([1]; sucralose alone 100.0000 mM, cells without bitter receptor (Example 9)): −0.179
agonist activity at TAS2R44 (calcium signaling), in words ([2]; cells stably expressing human TAS2R44): significant increase in calcium signaling

Sucralose + test cpd A ΔF/F0 ([2]; sucralose 0.3906 mM): 0.011
Sucralose + test cpd A ΔF/F0 ([2]; sucralose 0.7813 mM): 0.010
Sucralose + test cpd A ΔF/F0 ([2]; sucralose 1.5625 mM): 0.016
Sucralose + test cpd A ΔF/F0 ([2]; sucralose 3.1250 mM): 0.005
Sucralose + test cpd A ΔF/F0 ([2]; sucralose 6.2500 mM): 0.000
Sucralose + test cpd A ΔF/F0 ([2]; sucralose 12.5000 mM): −0.015
Sucralose + test cpd A ΔF/F0 ([2]; sucralose 25.0000 mM): −0.035
Sucralose + test cpd A ΔF/F0 ([2]; sucralose 50.0000 mM): −0.025
Sucralose + test cpd A ΔF/F0 ([2]; sucralose 100.0000 mM): 0.107
Structure (SMILES): CC1=CCC(C/C=C/C(=O)O)C1(C)C (stereo not shown) [test cpd A, (E)-4-(2,2,3-trimethylcyclopent-3-enyl)but-2-enoic acid]
Sucralose + test cpd A ΔF/F0 ([1]; 25 μM test cpd A, sucralose 100.0000 mM, cells without bitter receptor): −0.175
effect on the response of TAS2R44 to sucralose, in words ([2]; test compound at 25 μM): inhibited; also recorded: inhibit the response of a SABTR to sucralose
